Measurements: PMC7337938 (2020)

Key:
[1] = tested on: Zsw86 (RNA, riboswitch) GGAUACAGGACUGGCGGAUUAGUGGAAGCAACCACGUGGACUGUAUCCGAAGAAAAGCCGACCGCCUGGGCAAAAAUUAGCCCAG; assay: 1H NMR titration; details: 50 mM KCl, 25 mM potassium phosphate, 10 mM Mg2+; pH 6.2; up to 2 eq. ZMP
[2] = tested on: Zsw85 (RNA, riboswitch) GGAUACAGGACUGGCGGAUUAGUGGAAGCAACCACGUGGACUGUAUCCGAAGAAAAGCCGACCGCCUGGGCAAAAAUUAGCCCA; assay: 1H NMR titration; details: 50 mM KCl, 25 mM potassium phosphate, 10 mM Mg2+; pH 6.2; up to 2 eq. ZMP
[3] = tested on: Zsw77 (RNA, riboswitch) GGAUACAGGACUGGCGGAUUAGUGGAAGCAACCACGUGGACUGUAUCCGAAGAAAAGCCGACCGCCUGGGCAAAAA; assay: ITC; details: K+ 50 mM KCl + 25 mM potassium phosphate; Mg2+ 10 mM MgCl2 (assumed from NMR prep); pH 6.2; 60 μM RNA; stoichiometry free, binding-competent fraction 53%
[4] = tested on: Zsw83 (RNA, riboswitch) GGAUACAGGACUGGCGGAUUAGUGGAAGCAACCACGUGGACUGUAUCCGAAGAAAAGCCGACCGCCUGGGCAAAAAUUAGCC; assay: 1H NMR titration; details: 50 mM KCl, 25 mM potassium phosphate, 10 mM Mg2+; pH 6.2; 120 μM RNA; up to 2 eq. ZMP
[5] = tested on: Zsw89 (RNA, riboswitch) GGAUACAGGACUGGCGGAUUAGUGGAAGCAACCACGUGGACUGUAUCCGAAGAAAAGCCGACCGCCUGGGCAAAAAUUAGCCCAGGCG; assay: 1H NMR titration; details: 50 mM KCl, 25 mM potassium phosphate, 10 mM Mg2+; pH 6.2; up to 2 eq. ZMP
[6] = tested on: Zsw90 (RNA, riboswitch) GGAUACAGGACUGGCGGAUUAGUGGAAGCAACCACGUGGACUGUAUCCGAAGAAAAGCCGACCGCCUGGGCAAAAAUUAGCCCAGGCGG; assay: 1H NMR titration; details: 50 mM KCl, 25 mM potassium phosphate, 10 mM Mg2+; pH 6.2; up to 2 eq. ZMP
[7] = tested on: Zsw82 (RNA, riboswitch) GGAUACAGGACUGGCGGAUUAGUGGAAGCAACCACGUGGACUGUAUCCGAAGAAAAGCCGACCGCCUGGGCAAAAAUUAGC; assay: ITC and 1H NMR titration; details: 50 mM KCl, 25 mM potassium phosphate, 10 mM Mg2+ (NMR); pH 6.2; minor binding-competent population prevented curve fitting
[8] = tested on: Zsw91 (RNA, riboswitch) GGAUACAGGACUGGCGGAUUAGUGGAAGCAACCACGUGGACUGUAUCCGAAGAAAAGCCGACCGCCUGGGCAAAAAUUAGCCCAGGCGGU; assay: ITC; details: K+ (50 mM KCl, 25 mM potassium phosphate); Mg2+ for ITC not stated; pH 6.2; 60 μM RNA, 600 μM ZMP in syringe
[9] = tested on: Zsw101 (RNA, riboswitch) GGAUACAGGACUGGCGGAUUAGUGGAAGCAACCACGUGGACUGUAUCCGAAGAAAAGCCGACCGCCUGGGCAAAAAUUAGCCCAGGCGGUAUUUAUUUUU; assay: 1H NMR; details: 50 mM KCl, 25 mM potassium phosphate, Mg2+; pH 6.2
[10] = tested on: Zsw81 (RNA, riboswitch) GGAUACAGGACUGGCGGAUUAGUGGAAGCAACCACGUGGACUGUAUCCGAAGAAAAGCCGACCGCCUGGGCAAAAAUUAG; assay: ITC; details: K+ 50 mM KCl + 25 mM potassium phosphate; Mg2+ 10 mM MgCl2 (assumed from NMR prep); pH 6.2; 60 μM RNA; stoichiometry free, binding-competent fraction 13%
[11] = tested on: Zsw81 (RNA, riboswitch) GGAUACAGGACUGGCGGAUUAGUGGAAGCAACCACGUGGACUGUAUCCGAAGAAAAGCCGACCGCCUGGGCAAAAAUUAG; assay: 1H NMR titration, U42 imino intensity; details: 50 mM KCl, 25 mM potassium phosphate, 10 mM Mg2+; pH 6.2; RNA concentration free in fit, binding-competent fraction 43%
[12] = tested on: Zsw87 (RNA, riboswitch) GGAUACAGGACUGGCGGAUUAGUGGAAGCAACCACGUGGACUGUAUCCGAAGAAAAGCCGACCGCCUGGGCAAAAAUUAGCCCAGG; assay: 1H NMR titration; details: 50 mM KCl, 25 mM potassium phosphate, 10 mM Mg2+; pH 6.2; up to 2 eq. ZMP
[13] = tested on: Zsw48+Zsw15 (RNA, riboswitch) GGAUACAGGACUGGCGGAUUAGUGGAAGCAACCACGUGGACUGUAUCCG/GCCGACCGCCUGGGC; assay: 1H NMR; details: 50 mM KCl, 25 mM potassium phosphate, 10 mM Mg2+; pH 6.2; 100 μM RNA, 2 eq. ZMP; affinity lower than Zsw77
[14] = tested on: Zsw84 (RNA, riboswitch) GGAUACAGGACUGGCGGAUUAGUGGAAGCAACCACGUGGACUGUAUCCGAAGAAAAGCCGACCGCCUGGGCAAAAAUUAGCCC; assay: 1H NMR titration; details: 50 mM KCl, 25 mM potassium phosphate, 10 mM Mg2+; pH 6.2; up to 2 eq. ZMP
[15] = tested on: Zsw77 (RNA, riboswitch) GGAUACAGGACUGGCGGAUUAGUGGAAGCAACCACGUGGACUGUAUCCGAAGAAAAGCCGACCGCCUGGGCAAAAA; assay: 1H NMR titration, U42 imino intensity; details: 50 mM KCl, 25 mM potassium phosphate, 10 mM Mg2+; pH 6.2; RNA concentration free in fit, binding-competent fraction 70%

NC(=O)c1ncn([C@@H]2O[C@H](COP(=O)(O)O)[C@@H](O)[C@H]2O)c1N
binding [1]: no
binding [2]: no
dissociation constant [3]: 0.57 µM
binding [4]: no
binding [5]: no
binding [6]: no
binding [7]: weak
binding [8]: no
binding [9]: no
dissociation constant [10]: 0.54 µM
dissociation constant [11]: 2.58 µM
binding [12]: no
binding [13]: yes
binding [14]: no
dissociation constant [15]: 2.78 µM
